The source of these data is patent US9040713B2, “Methods of managing blood sugar levels and compositions related thereto” (EMORY UNIVERSITY, priority 2010, dated 2015).

One test concerns 3T3-L1 adipocytes. The experiment in a line: Fatty acid oxidation assay. Type of test: cell-based, mouse. Conditions: 100 nM insulin or 5 μM 4524-E7; normalized to DMSO-treated cells. The procedure: (A) 4524-E7 activates IR phosphorylation and its downstream signaling in 3T3-L1 adipocytes. […] The cells were lysed, and immunoprecipitated with PY20, and followed by Western blot using specific antibodies. (B) 4524-E7 stimulates glucose uptake in 3T3-L1 adipocytes. […] [3H]2-deoxyglucose was added, and the cells were further incubated for 10 min. The amount of [3H]2-deoxyglucose taken by adipocytes was measured. (C) 4524-E7 inhibits fatty acid oxidation. […] Results were normalized to DMSO-treated cells and expressed as mean±S.E.M. (*: P<0.05; **:P<0.01, Student's t-test, n=3). (D) IR knockdown in adipocytes decreases IR signaling by 4524-E7. […] Cells lysates were collected and analyzed by Western blot. (E) The glucose uptake induced by 4524-E7 in p85α knockout MEF cells. […] The uptaken [3H] 2-deoxyglucose was monitored by liquid scintillation counter. Results were expressed as mean±S.E.M. (*: P<0.05; **:P<0.01, Student's t-test, n=3).
Fatty acid oxidation was measured by determining the production of 3H2O from [9, 10-3H] palmitate. Differentiated NIH3T3-L1 were plated (0.5×10^5 cell per well) in a 12-well plate for 1 day. […] After incubation, the medium was removed and extracted with Chloroform/Methanol (2:1), and the aqueous phase containing 3H2O was collected and used for radioactivity measurement in a liquid scintillation counter.

Test [1] concerns the target T1, IR (Homo sapiens, UniProt P06213). Kind of test: Immunoblotting of IR phosphorylation and downstream signaling in CHO-IR cells. The test is classed as cell-based. On the set-up: expressed in transfected cells; host or cells: CHO (CHO-IR, gift from Dr. Nicholas Webster, UCSD). The procedure: The cell lysates were analyzed by immunoblotting with anti-phospho-IR antibodies, or immunoprecipitated by PY20 and analyzed using anti-IR and anti-IRS-1, respectively. […] The cell lysates were analyzed by immunoblotting with anti-pIGF-1R and anti-pEGFR. […]
A cell-based ELISA assay was developed with an IR stably transfected Chinese Hamster Ovary (CHO-IR) cell line. […] The cell lysates were subjected to the sandwich ELISA using immobilized anti-phosphotyrosine antibody and anti-IR antibody.

The next test addresses T2, GST-IRTK (Homo sapiens, UniProt P06213).
T2 construct: GST-tagged IRTK (GST-IRTK, a.a. 1011-1382); purchased Invitrogen
The experiment in a line: Partial proteolysis. The conditions noted are these: compound 50 μM or ATP-γ-S 5 μM; limited trypsin (or chymotrypsin) digestion. The test is classed as binding. Here is the method:
200 ng GST-IRTK was subjected to limited trypsin digestion in the presence or absence of 50 μM compound with 50 mM tris-HCL (pH8.2) and 20 mM CacCl2. The sample was separated on a SDS-polyacrylamide gel and stained by silver.
Several small molecules bind to the intracellular kinase domain of IR (IRTK) and provoke its activation. DDN might also interact with the IRTK to activate IR. To test this possibility, an UV-absorption spectra analysis was performed using recombinant IRTK. While the GST-tagged IRTK (GST-IRTK, a.a. 1011-1382) had no absorption from 200 nm to 800 nm, addition of DDN, but not its structural related analogue naptho[2,3-d]thiazole-4,9-dione-2-[(4-chlorophenyl)amino] […] Partial proteolysis analysis was also performed to confirm the DDN/IRTK interaction. Recombinant GST-tagged IRTK was incubated with either DMSO or DDN, followed by limited trypsin digestions. In DMSO treatment, GST-IRTK was digested into several smaller fragments of various molecular weights. […] Whereas a band of ˜37 kDa presented strongly in the ATP-γ-S incubated IRTK, a band of ˜30 kDa was found in the control samples but attenuated in the ATP-γ-S-treated sample.
To evaluate if 4524-E7 directly binds to the IR kinase domain, a partial proteolysis assay was performed with recombinant IRTK domain using trypsin or chymotrypsin, which was used before to characterize the interaction between IR and its small molecular ligand DAQ B1. Recombinant GST-tagged IRTK with either DMSO, 50 μM 4524-E7 or ATP-γ-S, were incubated and followed by limited trypsin or chymotrypsin digestion. Under DMSO treatment, GST-IRTK was quickly digested by both trypsin and chymotrypsin into several small fragments with various molecular weights (FIG. 10B). […] To test whether 4524-E7 selectively elevates IR kinase activities, an in vitro IR, IGFR, and EGFR kinase assays were performed using histone as the substrate.

Test [2] deals with T1, IR. Kind of test: Insulin competition assay (FITC-insulin, flow cytometry). Type of test: binding. Further details: expressed in transfected cells; host or cells: CHO (CHO-IR, gift from Dr. Nicholas Webster, UCSD). The conditions noted are these: CHO-IR cells. The procedure:
Cells were washed three times, acquired on a FACScan, and the mean channel fluorescence (MCF) of bell-shaped histograms was analyzed using the CellQuest program.
Cells were washed three times, acquired on a FACScan, and the mean channel fluorescence (MCF) of bell-shaped histograms was analyzed using the FlowJ program.

“And” between values parts separate entries of the source, which are not always exact repeats. Identical values can stand only once.

T1 sequence (P06213 763-1382 limits assumed): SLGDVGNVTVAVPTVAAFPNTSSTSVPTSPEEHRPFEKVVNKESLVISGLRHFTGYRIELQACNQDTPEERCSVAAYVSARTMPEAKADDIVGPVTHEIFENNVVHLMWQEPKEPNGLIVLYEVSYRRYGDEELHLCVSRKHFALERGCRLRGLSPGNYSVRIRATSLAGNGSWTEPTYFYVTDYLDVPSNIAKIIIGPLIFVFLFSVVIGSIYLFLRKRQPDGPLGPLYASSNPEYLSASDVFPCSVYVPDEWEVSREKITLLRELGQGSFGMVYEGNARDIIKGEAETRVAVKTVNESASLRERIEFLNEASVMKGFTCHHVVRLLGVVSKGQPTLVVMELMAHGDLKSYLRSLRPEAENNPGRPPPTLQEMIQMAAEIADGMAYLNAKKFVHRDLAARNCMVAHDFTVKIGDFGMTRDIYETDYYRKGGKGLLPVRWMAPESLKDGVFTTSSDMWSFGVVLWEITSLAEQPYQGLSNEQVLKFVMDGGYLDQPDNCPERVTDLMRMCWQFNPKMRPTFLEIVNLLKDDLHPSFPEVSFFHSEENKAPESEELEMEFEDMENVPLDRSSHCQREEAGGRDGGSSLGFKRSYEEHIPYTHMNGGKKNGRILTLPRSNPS
T1 sequence (P06213 28-758 limits assumed): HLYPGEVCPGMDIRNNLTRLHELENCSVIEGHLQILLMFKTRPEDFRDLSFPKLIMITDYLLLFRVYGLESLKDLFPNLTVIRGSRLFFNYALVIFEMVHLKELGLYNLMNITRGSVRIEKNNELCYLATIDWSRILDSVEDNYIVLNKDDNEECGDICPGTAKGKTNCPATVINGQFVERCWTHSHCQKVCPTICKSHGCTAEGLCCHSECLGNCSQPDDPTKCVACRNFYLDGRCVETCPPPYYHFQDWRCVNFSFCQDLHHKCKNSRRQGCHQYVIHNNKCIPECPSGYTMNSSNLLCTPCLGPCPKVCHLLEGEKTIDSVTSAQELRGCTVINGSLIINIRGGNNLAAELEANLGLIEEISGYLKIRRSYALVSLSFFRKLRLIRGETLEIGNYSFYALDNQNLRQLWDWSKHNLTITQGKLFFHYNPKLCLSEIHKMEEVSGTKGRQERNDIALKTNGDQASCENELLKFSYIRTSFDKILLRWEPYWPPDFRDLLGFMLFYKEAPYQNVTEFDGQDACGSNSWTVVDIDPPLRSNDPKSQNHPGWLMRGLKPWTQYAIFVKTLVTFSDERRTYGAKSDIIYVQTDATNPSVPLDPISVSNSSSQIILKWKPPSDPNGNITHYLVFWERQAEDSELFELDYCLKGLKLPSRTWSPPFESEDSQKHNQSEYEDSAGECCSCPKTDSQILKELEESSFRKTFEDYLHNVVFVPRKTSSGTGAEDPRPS
T2 sequence (P06213 1011-1382): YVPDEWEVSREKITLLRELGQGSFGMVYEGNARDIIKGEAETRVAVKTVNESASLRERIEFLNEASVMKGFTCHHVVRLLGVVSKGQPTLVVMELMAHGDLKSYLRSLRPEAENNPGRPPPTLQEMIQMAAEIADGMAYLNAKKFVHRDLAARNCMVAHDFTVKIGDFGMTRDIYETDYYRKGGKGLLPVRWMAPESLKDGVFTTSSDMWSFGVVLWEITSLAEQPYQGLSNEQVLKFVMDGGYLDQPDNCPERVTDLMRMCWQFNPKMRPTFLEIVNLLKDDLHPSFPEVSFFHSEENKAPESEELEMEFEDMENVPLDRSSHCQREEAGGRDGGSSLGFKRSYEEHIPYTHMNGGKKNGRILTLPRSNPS

With `O=C1c2ccccc2C(=O)C2SC(Nc3ccc(Cl)cc3)=NC12` (stereo not drawn) [4524-E7, 2-((4-chlorophenyl)amino)naphtho[2,3-d]thiazole-4,9(3aH,9aH)-dione], the lipid oxidation in the test on 3T3-L1 adipocytes is given as ~50 % of the control. On IR [1], the “concentration activating IR cascade strongly and specifically” value fell in the range of 1 to 2.5 µM. Also, on IR [1] (5 μM, 15 min), the “tyrosine phosphorylation on the IR” value is recorded as “increased the tyrosine phosphorylation on the IR”. Also, on IR [1] (5 μM, 30 min), the IR tyrosine phosphorylation result is reported as “triggered IR tyrosine phosphorylation”. Besides, at IR [1] (15 min), the “concentration at which Erk1/2 activation was detected” value is no less than 5 µM and the “concentration elevating Akt phosphorylation” value came to 0.5 µM. Moreover, the “protection of IRTK from proteolysis” value on GST-IRTK was “more intact IRTK was observed”. Besides, the “competition with FITC-insulin for IR binding (shift of fluorescent peak)” value on IR [2] (10 nM FITC-insulin, unlabelled insulin 1 μM) is “no significant change of the shifted peak position”.

Regarding `CC(=O)Oc1ccc(OC(C)=O)c2c1C(=O)C(Cl)=C(Cl)C2=O` [DDN, 5,8-diacetyloxy-2,3-dichloro-1,4-naphthoquinone], the “time at which IR phosphorylation starts” value at IR [1] (5 μM) is 5 to 15 min and 5 min. For the same compound, at IR [1] (5 μM, 15 min), the “tyrosine phosphorylation of IRS-1” value was “also increased”; the “tyrosine phosphorylation of the IR β subunit in Y1146 and Y1158/1162/1163” value is listed as “strongly stimulated”. Moreover, the “concentration stimulating the IR signal cascades” value on IR [1] (DDN or CSN 30 min, insulin 15 min) turned out to be 5 µM. The “protection of IRTK from proteolysis” value on GST-IRTK is given as “protected IRTK against trypsin digestion”. On IR [2] (100 nM FITC-insulin, unlabelled insulin 5 μM), the “competition with FITC-insulin for IR binding (shift of fluorescent peak)” value is reported as “No significant change of the shifted peak position”.

“insulin: insulin, used as positive control”: the lipid oxidation with 3T3-L1 adipocytes is given as ~70 % of the control.
